Source: patent US11458118B2, “Methods and pharmaceutical compositions for the treatment of diseases associated with reduced CFTR function” (INSERM (INSTITUT NATIONAL DE LA SANTÉ ET DE LA RECHERCHE …, priority 2017, dated 2022)
“Also recorded” adds a separate entry of the source.

What was measured:
F508del-CFTR [1] = experiment: Whole-cell patch-clamp of CFTR Cl- channel activity in CFBE41o-/F508del cells; type: cell-based, human; conditions: for increase of Cl- currents in treated vs untreated F508del-CFTR cells: pA/pF values at +80 mV
Description: (§1) The CFBE41o−cells purchased from Professor D. C.
Whole-cell patch-clamp recordings were obtained with the patch clamp system Port-a-Patch® (Nanion Technologies GmbH, Germany) as previously described [74;75]. Untreated or AEBSF treated cells were incubated with the external solution (140 mM NaCl, 2 mM CaCl2, 1 mM MgCl2, 10 mM Hepes, 5 mM D-glucose monohydrate, pH 7.4, 298 mOsmol) before recording. The internal solution used was 50 mM CsCl, 10 mM NaCl, 60 mM Cs-Fluoride, 20 mM EGTA, 10 mM Hepes/CsOH, and 5 mM Mg-ATP (Mg salt); pH 7.2; 285 mOsmol. CFTR activation and CFTR inhibition was done using the CFTR-activator ([…] and […] both from Sigma) and the CFTR-inhibitor ([…], Sigma) solution respectively, that were added to the external solution. Voltage steps (100 ms) from a holding potential of −80 mV, from −80 mV to +80 mV (10 mV increments) were applied. Data were captured using the Patchmaster program (Nanion Technologies GmbH, Germany) and currents normalized by membrane capacitances to remove variability due to differences in the cell sizes. Results were presented as graphic representations of I/V relationship and as bar graphs after statistical analysis of the normalized values, at +80 mV.

[2] = system: cells expressing Wt-CFTR and F508del-CFTR; experiment: Cell toxicity observed in treated cells; conditions: in the used concentration (300 μM AEBSF; 10 μM PF-429242)
Description: The CFBE41o−cells purchased from Professor D. C. Gruenert (San Francisco, Calif., U.S.A.) were human bronchial epithelial cells endogenously expressing the F508del-CFTR obtained from a CF patient homozygous for the F508del mutation [51;52]. The cells used in experiments were the transduced CFBE41o−/WT also called CFBE41o−/corrected (CFBE41o−/corr) and CFBE41o−/F508del cells, and were cultured as previously described. These cells will be also called cells expressing Wt-CFTR and cells expressing F508del-CFTR in the manuscript. Cell culture media and supplements were purchased from Lonza (Basel, Switzerland) and CliniSciences (Nanterre, France). To inhibit ATF6 activation, cells were incubated with 300 μM of the serine protease inhibitor 4-(2-Aminoethyl) benzenesulfonyl fluoride hydrochloride (AEBSF) purchased from Servilab. In some experiments, ATF6 activation was blocked by the use of 10 μM PF-429242 (4-[(Diethylamino)methyl]-N-[2-(2-methoxyphenyl)ethyl]-N-(3R)-3-pyrrolidinylbenzamide, from Tocris).

ATF6 = ATF6 expression and activation by western blot (total lysates, nuclear fractions) in cells expressing F508del-CFTR; type: cell-based, human; conditions: 300 μM AEBSF
Description: as §1
(§2) Untreated or AEBSF treated cells were rinsed twice with cold PBS. For total cell lysate preparation, cells were lysed in RIPA buffer (25 mM Tris-HCl pH 7.5, 150 mM NaCl, 1% Triton X-100, 1% Na-Deoxycholate, 0.1% SDS, 10 mM iodoacetamide, 100 μM PMSF) supplemented with fresh protease-inhibitor cocktail (Complete tablets—EDTA free, Roche, Basel, Switzerland) added extemporaneously at a final concentration of 40 μl/ml (30 min on ice). Lysates were centrifugated (15 min, 16000 g, 4° C.). For nuclear preparation, cells were washed twice with cold PBS, and lysed with buffer A (10 mM HEPES pH 7.9, 1.5 mM MgCl2, 10 mM KCl, 2 mM EDTA, 0.5 mM DTT, 0.20% NP40 and protease-inhibitor cocktail) during 15 min at 4° C. Lysates were then centrifuged (1,500×g, 2 min, 4° C.) and the supernatants (cytosolic fraction) were removed in a new tube. The pellet was washed twice in buffer B (Buffer A without NP40) and lysed with buffer C (20 mM HEPES pH 7.9, 1.5 mM MgCl2, 450 mM KCl, 2 mM EDTA, 2 mM EGTA, 0.5 mM DTT, 25% Glycerol and protease-inhibitor cocktail) during 1 h vortexing 2200 rpm. Lysates were then centrifuged (14,000×g, 10 min, 4° C.) and supernatant (nuclear fraction) was removed in a new tube. Protein concentrations were determined using Lowry's methodology with the bovine serum albumin used as a standard.
For each sample equal amount of total or nuclear proteins was loaded on a polyacrylamide gel and resolved by SDS-PAGE (10%). Samples were then transferred onto a PVDF membrane (EMD Millipore, Billerica, Mass., United States). After blotting, membranes were blocked with 5% (w/v) non-fat dried skimmed milk in PBS-0.1% Tween20 (PBST). Blots were then probed overnight at 4° C. with the primary antibodies listed hereafter: Rabbit polyclonal anti-ATF6 antibody (#09-069, EMD Millipore), Rabbit polyclonal anti-S1P antibody (H-300) (#SC-20757, SantaCruz Biotechnology), Rabbit polyclonal anti-GRP78 antibody (H-129) (#SC-13968, SantaCruz Biotechnology). Membranes were further incubated 1 h at room temperature with the appropriate horseradish peroxidase (HRP) conjugated secondary antibody diluted in PBST (1/20,000): Goat anti-rabbit (#A0545, Servilab). Blots were developed by enhanced chemiluminescence kit (ECL Plus, GE Healthcare) and analyzed using Chemi-Smart 5100 ECL imaging system (Vilber Lourmat). The relative intensity of each band was quantified by densitometry using BIO-1D software (Vilber Lourmat). Each value was normalized by blue coomassie staining or the G3PDH signal obtained in the same lane on the same blot probed with mouse monoclonal antibody anti-G3PDH (#H86504M, Meridian Life Science®, Inc.) diluted in PBST (1/30,000).

S1P = S1P expression by western blot in cells expressing F508del-CFTR; type: cell-based, human; conditions: 300 μM AEBSF, total cell lysates
Description: as §1
as §2, with “The pellet was washed twice in buffer B (Buffer A without NP40) and lysed with buffer C (20 mM HEPES pH 7.9, 1.5 mM MgCl2, 450 mM KCl, 2 mM EDTA, 2 mM EGTA, 0.5 mM DTT, 25% Glycerol and protease-inhibitor cocktail) during 1 h vortexing 2200 rpm. Lysates were then centrifuged (14,000×g, 10 min, 4° C.) and supernatant (nuclear fraction) was removed in a new tube.” left out
(§3) For each sample equal amount of total or nuclear proteins was loaded on a polyacrylamide gel and resolved by SDS-PAGE (10%). […] Blots were developed by enhanced chemiluminescence kit (ECL Plus, GE Healthcare) and analyzed using Chemi-Smart 5100 ECL imaging system (Vilber Lourmat). The relative intensity of each band was quantified by densitometry using BIO-1D software (Vilber Lourmat). […]

BiP = BiP expression by western blot in cells expressing F508del-CFTR (UPR reporter); type: cell-based, human; conditions: 300 μM AEBSF, total cell lysates
Description: as §1
as §2, with “The pellet was washed twice in buffer B (Buffer A without NP40) and lysed with buffer C (20 mM HEPES pH 7.9, 1.5 mM MgCl2, 450 mM KCl, 2 mM EDTA, 2 mM EGTA, 0.5 mM DTT, 25% Glycerol and protease-inhibitor cocktail) during 1 h vortexing 2200 rpm. Lysates were then centrifuged (14,000×g, 10 min, 4° C.) and supernatant (nuclear fraction) was removed in a new tube.” left out
as §3

[3] = system: cells expressing F508del-CFTR; experiment: 2-DE and mass spectrometry of differentially expressed proteins after treatment; type: cell-based, human; conditions: AEBSF treated vs untreated cell lysates, above 2 fold, MS identification
Description: 100 μg of total proteins from untreated or AEBSF treated cells were used for experiments. Each protein sample was first diluted in DeStreak Rehydration Solution (GE Healthcare, Chalfont St Giles, UK) which contains optimized concentrations of urea, thiourea, CHAPS, DeStreak Reagent and appropriate IPG buffer. Passive rehydration of Immobiline DryStrip gels (7 cm, pH 3-10 NL, GE Healthcare) with samples was performed during 8 hours. Once rehydration completed, Immobiline DryStrip gel are transferred in the Manifold on Ettan IPGphor 3 (GE Healthcare) for first dimension isoelectric focusing (IEF). IEF protocol used is divided in five steps: 1—Step 300 V, 200 Vhr; 2—Grad 1000 V, 300 Vhr; 3—Grad 5000 V, 4500 Vhr; 4—Step 5000V, 9000 Vhr; 5—Step 300V, 12-15 h. Second-dimension separation is performed immediately after IEF is completed. Immobiline DryStrip gels are equilibrated (15 min at room temperature) in two SDS equilibration buffers (6 M urea, 75 mM Tris-HCl pH=8.8, 30% Glycerol, 2% SDS, 0.0002% bromophenol blue+DTT or iodoacetamide) before SDS-PAGE. Electrophoresis was performed with lab-cast gels (1 mm, Bis-Tris 10%) in 1× Tris-Glycine-SDS buffer (BioRad, Hercules, Calif., USA) at 120 V for 2 h 30. […] Gel alignment, spot detection and quantification were done using the PDQuest software (PDQuest Basic-8.0.1, BioRad). […]

[4] = system: S1P-mediated cleavage of ATF6; conditions: from references [69], [78]; cited from earlier work
F508del-CFTR [5] = experiment: Cell surface detection of CFTR in BHK cells expressing HA-tagged F508del-CFTR; type: cell-based, hamster; conditions: for presence of F508del-CFTR within membranes: after treatment of cells expressing F508del-CFTR
Description: BHK cells stably expressing WT-CFTR or F508del-CFTR were graciously given by Dr. John W. Hanrahan (McGill University). A 3-Haemaglutinin (HA)-epitope tag was inserted in the fourth extracellular loop of CFTR in these cell lines. Cells were cultured in Dulbecco's modified Eagle medium (Lonza, Switzerland) supplemented with 10% fetal bovine serum. Cells were washed three times with cold 1×PBS (Eurobio, France) plus bovine serum albumine (BSA, 0.5%) and incubated 1 h at 4° C. with an anti-HA antibody (BioLegend, USA) diluted (1/250) in 1×PBS plus 0.5% BSA. Cells were washed three times with cold 1×PBS, scraped and centrifugated (300×g, 3 min, 4° C.). Cells pellets were suspended in RIPA buffer for 30 min on ice, centrifuged (16000×g, 15 min, 4° C.) and total protein concentration of supernatant was determined using Lowry's method, using BSA as a standard. Protein G magnetic beads (Thermo Fisher Scientific, USA) were equilibrated with cold RIPA buffer. Lysates were then incubated with the magnetic beads (100 μl of magnetic beads per mg of total protein) at 4° C. during for 2 h. Beads were then rinsed three times in cold RIPA buffer and proteins were eluted with 2× sample buffer containing 2-mercaptoethanol (20 min, 37° C.). […] Membrane was blocked with 5% (w/v) dried skimmed milk in PBS (0.1%) with Tween20, probed overnight at 4° C. with the anti-HA antibody (1/500) in 5% non-fat dried milk in PBST. Membranes were further washed and incubated 1 h at RT with HRP conjugated anti-mouse antibody (1/20000; Santa Cruz Biotechnology, USA). Blots were developed by enhanced chemiluminescence kit (ECL Plus, GE Healthcare, USA) and analyzed using Chemi-Smart 5100 ECL imaging system (Vilber Lourmat, Germany).

SMILES | increase of Cl- currents in treated vs untreated F508del-CFTR cells (F508del-CFTR [1]; 300 μM AEBSF, 8 hours) | fold increase of the F508del-CFTR's Cl- function (F508del-CFTR [1]; 300 μM AEBSF, 8 hours, vs untreated cells) | mean cell Cl- currents (F508del-CFTR [1]; CFBE41o-/F508del cells, 300 μM AEBSF, 8 hours, at +80 mV, untreated 32.98±14.71, Wt-CFTR 118.8±21.09) | cell toxicity [2] | ATF6 activation (cleaved form in nuclear fraction) compared to the zero time point (ATF6; nuclear fractions) | cleaved 50 kDa ATF6 in nuclear fraction, treated vs untreated cells for each time point (ATF6; nuclear fractions) | full length ATF6 expression compared to the zero time point (ATF6; total cell lysates) | full length ATF6 expression, treated vs untreated cells for each time point (ATF6; total cell lysates) | S1P expression over time in treated cells (S1P; 0.5, 1, 2, 4 or 8 hours, CFBE41o-/F508del cells, hydrochloride) | S1P expression, treated vs untreated cells for each time point (S1P; F508del-CFTR cells) | BiP expression, treated vs untreated cells for each time point (BiP) | BiP expression over time in treated cells (BiP; over time) | differentially expressed proteins after treatment [3] | inhibition of ATF6 cleavage upon ER stress [4] | mature form of CFTR (C band, 170 kDa) at the cell surface (F508del-CFTR [5]; BHK cells expressing HA-tagged F508del-CFTR, anti-HA pull-down and immunoblot) | presence of F508del-CFTR within membranes (F508del-CFTR [5]) | increase of Cl- currents in treated vs untreated F508del-CFTR cells (F508del-CFTR [1]; 10 μM PF-429242, 8 hours) | mean cell Cl- currents (function of F508del-CFTR) (F508del-CFTR [1]; CFBE41o-/F508del cells, 10 μM PF-429242, 8 hours, at +80 mV, untreated 32.98±14.71)
Cl.NCCc1ccc(S(=O)(=O)F)cc1 [AEBSF, 4-(2-Aminoethyl) benzenesulfonyl fluoride hydrochloride] | +153% | 2.5 fold | 83.42±11.51 pA/pF | No obvious cell toxicity was observed | significant decreases at the 2 and 4 hours treatment | significant decreased expression of the 50 kDa form of ATF6, from 1 to 8 hours | significant increased expression was observed after 4 and 8 hours of treatment | significant decreases after 0.5, 1 and to 2 hours and a significant increase after 8 hours | significance was only observed at the 2 hours time point; also recorded: no significant variation was observed over time except for the 2 hours time point | no significant difference | Significant decreases at the 4 and 8 hours time points | significant decrease of BiP expression was observed after 4 hours of treatment | HNRNPH1 and HNRH3 were decreased and that PDIA3 (Grp58), HSP7C, GRP75 and HSP71 were increased | inhibit the proteolysis of ATF6 | only observed after AEBSF treatment | increase the presence of F508del-CFTR within membranes | – | –
CCN(CC)Cc1ccc(C(=O)N(CCc2ccccc2OC)[C@@H]2CCNC2)cc1 [PF-429242, 4-[(Diethylamino)methyl]-N-[2-(2-methoxyphenyl)ethyl]-N-(3R)-3-pyrrolidinylbenzamide] | – | – | – | – | – | – | – | – | – | – | – | – | – | efficiently blocks the S1P-mediated cleavage of ATF6 upon ER stress | – | increase the presence of F508del-CFTR within membranes | +152% | 82.67±22.26 pA/pF
